Where a name gives a salt, the structure may show the parent alone.
Structure (SMILES) | melting point
Cc1ccc(-c2cccc(/C=C/C(=O)Nc3ccc(Cc4ccccn4)cc3)c2)cc1 [Compound 190, (E)-N-[4—(2-pyridylmethyl)phenyl]-3—(4-methylphenyl)cinnamamide] | 169 to 171 °C
CN(C)c1ccc(-c2ccc3c(c2)C=C(C(=O)Nc2ccc(CP4(=O)CCCCC4)cc2)CCO3)cc1 [Compound 154, 7—(4-dimethylaminophenyl)-N-(4—((1-oxophosphorinan-1-yl)methyl)phenyl)-2,3-dihydro-1-benzoxepine-4-carboxamide] | 293 to 294 °C (dec.)
CCOc1ccc(-c2ccc3c(c2)C=C(C(=O)Nc2ccc(CN(C)C4CCC5(CC4)OCCO5)cc2)CCO3)cc1 [Compound 287, 7-(4-ethoxyphenyl)-N-[4-[N-(4,4-ethylenedioxycyclohexyl)-N-methylaminomethyl]-phenyl]-2,3-dihydro-1-benzoxepine-4-carboxamide] | 172 to 174 °C
Cc1ccc(-c2ccc3c(c2)C=C(C(=O)Nc2ccc(CSCc4ccccc4)cc2)CCO3)cc1 [Compound 86, N-(4—(benzylthiomethyl)phenyl)-7—(4-methylphenyl)-2,3-dihydro-1-benzoxepine-4-carboxamide] | 145 to 146 °C
Cc1ccc(-c2ccc3c(c2)C=C(C(=O)Nc2ccc(CN(CCO)CCO)cc2)CC3)cc1 [Compound 51, N-[4-[N,N-bis(2-hydroxyethyl)-aminomethyl]phenyl]-7—(4-methylphenyl)-3,4-dihydronaphthalene-2-carboxamide] | 150 to 151 °C
Cc1ccc(-c2ccc3c(c2)C=C(C(=O)Nc2ccc(CN(C)C4CCOCC4)cc2)CC(C)O3)cc1 (centres unmarked) [Compound 104, 7—(4-methylphenyl)-2-methyl-N-(4—((N-tetrahydropyran-4-yl-N-methylamino)methyl)phenyl)-2,3-dihydro-1-benzoxepine-4-carboxamide] | 170 to 171 °C
Cc1ccc(-c2ccc3c(c2)C=C(C(=O)Nc2ccc(C[N+]4(C)CCCCC4)cc2)CCO3)cc1 (as salt: iodide) [Compound 96, 1—(N-(7—(4-methylphenyl)-2,3-dihydro-1-benzoxepin-4-carbonyl)-4-aminobenzyl)-1-methylpiperidinium iodide] | 227 to 228 °C (dec.)
CN1CCN(c2ccc(-c3ccc4c(c3)C=C(C(=O)Nc3ccc(CN(C)C5CCOCC5)cc3)CCO4)cc2)CC1 [Compound 124, 7—(4—(4-methylpiperazin-1-yl)phenyl)-N-(4—((N-tetrahydropyran-4-yl-N-methylamino)methyl)phenyl)-2,3-dihydro-1-benzoxepine-4-carboxamide] | 220 to 221 °C
Cc1ccc(-c2cccc(/C=C/C(=O)Nc3ccc(-c4cccnc4)cc3)c2)cc1 [Compound 192, (E)-N-[4—(3-pyridyl)phenyl]-3—(4-methylphenyl)cinnamamide] | 213 to 214 °C
Cc1ccc(-c2ccc3c(c2)C=C(C(=O)Nc2ccc(C[N+](C)(C)C4CCOCC4)cc2)CCS3)cc1.[I-] [Compound 241, dimethyl-(N-(7-(4-methylphenyl)-2,3-dihydro-1-benzothiepine-4-carbonyl)-4-aminobenzyl)-N-(4-tetrahydropyranyl)ammonium iodide] | 220 to 222 °C (dec.)
CCOc1ccc(-c2ccc3c(c2)C=C(C(=O)Nc2ccc(C[N+](C)(C)C4CCOCC4)cc2)CCO3)cc1 (as salt: chloride) [Compound 250, N-(4-(((7-(4-ethoxyphenyl)-2,3-dihydro-1-benzoxepin-4-yl)carbonyl)amino)benzyl)-N,N-dimethyl-N-(4-tetrahydropyranyl)ammonium chloride] | 200 to 204 °C
CN(Cc1ccc(NC(=O)C2=Cc3cc(-c4ccc5c(c4)OCO5)ccc3SCC2)cc1)C1CCOCC1 [Compound 286, 7-(3,4-methylenedioxyphenyl)-N-[4-[N-methyl-N-(tetrahydropyran-4-yl)aminomethyl]phenyl]-2,3-dihydro-1-benzothiepine-4-carboxamide] | 193 to 194 °C
Cc1ccc(-c2ccc3c(c2)C=C(C(=O)Nc2ccc(CN4CCSCC4)cc2)CC3)cc1 [Compound 50, 7—(4-methylphenyl)-N-[4—(thiomorpholinomethyl)phenyl]-3,4-dihydro-naphthalene-2-carboxamide] | 178 to 180 °C
CN(C)c1ccc(-c2ccc3c(c2)C=C(C(=O)Nc2ccc(CN(C)C4CCOCC4)cc2)CCO3)cc1 [Compound 149, 7—(4-dimethylaminophenyl)-N-(4—((N-tetrahydropyran-4-yl-N-methylamino)methyl)phenyl)-2,3-dihydro-1-benzoxepine-4-carboxamide] | 208 to 209 °C (dec.)
Cc1ccc(-c2ccc3c(c2)C=C(C(=O)Nc2ccc(Cc4ccccn4)cc2)CCO3)cc1 [Compound 161, N-[4—(2-pyridylmethyl)phenyl]-7—(4-methylphenyl)-2,3-dihydro-1-benzoxepine-4-carboxamide] | 189 to 190 °C
Cc1ccc(-c2ccc3c(c2)C=C(C(=O)Nc2ccc(C[N+]4(C)CCCCC4)cc2)CCO3)cc1 (as salt: chloride) [Compound 97, 1—(N-(7—(4-methylphenyl)-2,3-dihydro-1-benzoxepin-4-carbonyl)-4-aminobenzyl)-1-methylpiperidinium chloride] | 231 to 232 °C
Cc1ccc(-c2ccc3c(c2)C=C(C(=O)Nc2ccc(CNC4CCCCC4)cc2)CCO3)cc1 [Compound 114, N-(4—((cyclohexylamino)methyl)phenyl)-7—(4-methylphenyl)-2,3-dihydro-1-benzoxepine-4-carboxamide] | 183 to 184 °C
O=C(C=Cc1cccc(-c2ccccc2)c1)Nc1ccc(CN2CCCCC2)cc1 [Compound 81, 1—(4—(3-phenylcinnamoylamino)-benzyl)piperidine] | 159 to 160 °C
COCC(COC)N(C)Cc1ccc(NC(=O)C2=Cc3cc(-c4ccc(C)cc4)ccc3OCC2)cc1 [Compound 313, N-(4-((N-(1,3-dimethoxypropan-2-yl)-N-methylamino)methyl)phenyl)-7-(4-methylphenyl)-2,3-dihydro-1-benzoxepine-4-carboxamide] | 128 to 132 °C
COc1ccc(-c2ccc3c(c2)C=C(C(=O)Nc2ccc(CN(C)C4CCC(=O)CC4)cc2)CCS3)cc1 [Compound 284, 7-(4-methoxyphenyl)-N-[4-[N-methyl-N-(4-oxocyclohexyl)aminomethyl]phenyl]-2,3-dihydro-1-benzothiepine-4-carboxamide] | 133 to 139 °C
O=C(Nc1ccc(CN2CCCCC2)cc1)C1=Cc2cc(C3CCCCC3)ccc2CC1 [Compound 1, 7-cyclohexyl-N-[4—(piperidinomethyl)-phenyl]-3,4-dihydronaphthalene-2-carboxamide] | 180 to 181 °C
CCP(=O)(CC)Cc1ccc(NC(=O)C2=Cc3cc(-c4ccc(C)cc4)ccc3OCC2)cc1 [Compound 163, N-(4-diethylphosphorylmethylphenyl)-7—(4-methylphenyl)-2,3-dihydro-1-benzoxepine-4-carboxamide] | 240 to 241 °C
Cc1ccc(-c2ccc3c(c2)C=C(C(=O)Nc2ccc(CNC(CO)CO)cc2)CC3)cc1 [Compound 48, N-[4-[(1,3-dihydroxy-2-propyl)aminomethyl]phenyl]-7—(4-methylphenyl)-3,4-dihydronaphthalene-2-carboxamide] | 189 to 193 °C

Source: patent publication US6413947B1, “Anilide derivative, production and use thereof” (Takeda Chemical Industries, Ltd., priority 1997, dated 2002)
